Question: For O=C(Cc1ccccc1)Nc1ccc(-c2noc(C(F)(F)F)n2)cc1 [Ex-1, 2-phenyl-N-[4-[5-(trifluoromethyl)-1,2,4-oxadiazol-3-yl]phenyl]acetamide], which melting point is on record?
Answer: 198 °C

Source: US20180354921A1, “SUBSTITUTED OXADIAZOLES FOR COMBATING PHYTOPATHOGENIC FUNGI” (BASF SE, priority 2015, published 2018)
